US10322124B2, “6-hydroxy-2,5,7,8-tetramethylchroman-compounds for the treatment of chronic obstructive airway diseases” (Sulfateq B.V., priority 2014, dated 2019)
“Also recorded” adds a separate entry of the source. Read-outs that look alike come from different tables or passages of the source.

Tests used:
hTERT cells = assay: Trypan blue cell counting (cell viability); format: cell-based, human; conditions: 24 hours, absence or presence of 15% CSE, trypan blue counting (FIG. 1)
Description: (§1) In this example, the effects of […] H2S compounds, i.e. SUL90, SUL121 were studied on: • 1) The cell viability of human (immortalized) airway smooth muscle cells (hTERT cells), • 2) The release of the inflammation mediator IL-8 from hTERT cells, • 3) Airway smooth muscle contractility of bovine trachea smooth muscle strips. The samples used were: • Two SUL-compounds: SUL90, SUL121; • Human telomerase reverse transcriptase immortalized airway smooth muscles (hTERT) cells, cultured as previously described (Oldenburger et al., 2012). Prior to the experiments, cells were serum-deprived for 1 day, followed by cell treatment with the indicated concentrations of the SUL-compounds in the absence and presence of 15% cigarette smoke extract (CSE) for additional 24 hours. As controls, 1 μM fenoterol and 500 μM of the H2S donor NaHS were used. • 100% cigarette smoke extract (CSE), freshly made by combusting (Watson Marlow 323 E/D, Rotterdam, The Netherlands) the smoke of two research cigarettes (University of Kentucky 2R4F) through 25 mL of DMEM (FBS-free) at a speed of approximately 1 cigarette/5 minutes. Afterwards, CSE was diluted to 15% (Oldenburger et al., 2012).
(§2) For cell-based studies, the SUL compounds were dissolved in 0.9% NaCl as 1 mM stock solutions. For the isometric tension measurements, the SUL compounds were dissolved in 100% DMSO as 100 mM stock solution.
Assay 1: Trypan Blue Cell Counting
For cell viability measurements, trypan blue cell counting was performed as previously described (Oldenburger et al., 2012). As control, 500 μM of the H2S donor NaHS was used. Alternatively, alamar blue measurements were performed to determine cell viability essentially as described before (Oldenburger et al., 2012).
Briefly, hTERT cells were plated on 24-well plates as a cell density of 10,000 cells/well. Again cells were serum-deprived for 1 day, followed by cell treatment with the indicated concentrations of the SUL-compounds in the absence and presence of 15% cigarette smoke extract (CSE) for additional 24 hours.

[1] = system: bovine trachea smooth muscle (BTSM) strips; assay: Bovine trachea smooth muscle (BTSM) strips, isometric tension measurements; conditions: for relaxation of methacholine-pre-contracted BTSM strips: accumulative doses 1-300 μM, strips pre-contracted with methacholine (FIG. 3); for EC50: Bos taurus, relaxation of methacholine-pre-contracted BTSM strips, mean ± SEM, 3 determinations; for effect of the ß2-adrenoceptor antagonist propranolol on the relaxation of BTSM strips induced by the compound: 1 μM propranolol, 30 minutes prior (FIG. 4); for shift of the dose response curve for isoprenaline (isoprenaline-induced relaxation): BTSM strips pre-incubated with compound at 30 μM (FIG. 5); for contraction induced by methacholine: BTSM strips pre-incubated with compound at 30 μM, methacholine dose response curve (FIG. 6); for isometric tension of BTSM strips at 30 μM: concentration of 30 μM
Experimental: as §2
Assay 3: Bovein Trachea Smooth Muscle (BTSM) Strips and Isometric Tension Measurements
Isometric tension measurements were performed as described previously (Roscioni et al., 2011: Roscioni, Prins et al., 2011). BTSM strips were mounted for isometric recording in organ-baths, containing Krebs-Henseleit (KH) buffer, containing in mM: […], 25 NaHCO3, 5.5 glucose, 5.6 KCl, 1.18 MgSO4, 2.50 CaCl2, 1.28 NaH2PO4, pre-gasses with 5% of CO2 and 95% O2, pH 7.4. After dissection of the smooth muscle layer and careful removal of connective tissue, BTSM strips of approximately 1 cm length and 2 mm width were prepared. Tissue strips were cultured in DMEM supplemented with non-essential amino acid mixture (1:100), sodium pyruvate (1 mM), gentamicin (45 μg*ml−1), penicillin (100 U*ml−1), streptomycin 100 μg*ml−1, amphotericin B (1.5 μg*ml−1) apo-transferrin (5 μg*ml−1) and ascorbic acid (100 μM). The BTSM strips were cultured for 1-3 days before isometric tension measurement in an Innova 4000 incubator shaker 37° C. 55 rpm).
For isometric tension measurements (Roscioni et al., 2011: Roscioni, Prins et al., 2011). BTSM strips were calibrated, were mounted into the transducers and submerged into the organ baths in pre-gassed KH buffer. Each strip was adjusted to a basal tension of 3 gram. Then, the strips were washed, equilibrated again for 60 minutes, followed by pre-contractions induced by 1×10-3.5 μM methacholine. To analyze acute effects of the SUL-compounds on the isometric tension, the strips were incubated with accumulative doses of the SUL-compounds (1-300 μM), followed by the addition of 0.01 μM isoprenaline.
To analyze potential role of the ß2-AR in the effects induced by the SUL-compounds, the strips were incubated with 1 μM propranonol for 30 minutes prior addition of the SUL-compounds. To analyze potential effects of the SUL-compounds on the isoprenaline-induced relaxation, the strips were first incubated with the SUL-compounds (30 μM each), followed by the addition of accumulative doses of isoprenaline (1×10.5-1 μM). Finally, to analyze potential effects of the SUL-compounds on the methacholine-induced contraction, the strips were first incubated with the SUL-compounds (30 μM each), followed by addition of accumulative doses of methacholine (0.001-30 μM), before the addition of 0.01 μM isoprenaline.
Data are shown are mean±standard error of the mean. One-way ANOVA followed by Bonferroni post hoc test, 2-tailed paired t-test, two-way ANOVA was used when appropriate to identify statistical difference between means. A statistical difference was defined as significant at p<0.05.

[2] = system: IL-8 release from hTERT cells; assay: Release of interleukin-8 (IL-8) from hTERT cells exposed to CSE; format: cell-based, human; conditions: 24 hours, 15% CSE, ELISA (FIG. 2)
Description: as §1, §2
Assay 2: Release of interleukin-8 (IL-8) from hTERT Cells
This assay was used to determine the release of interleukin-8 from hTERT cells, fenoterol (1 μM) and the H2S donor (500 μM) served as controls. 24 hours after cell stimulation with the indicated concentrations of the SUL-compounds in the absence and presence of 15% CSW, culture medium was collected to measure the IL-8 concentration in the cell supernatants according to the manufacturer's instructions (PeliKine Compact ELISA kit, Sanquin, The Netherlands), as previously described (Oldenburger et al., 2012.

[3] = 1 μM propranolol pre-incubation, read-out: pD2, Propranolol (converted)
[4] = solvent treated, read-out: pD2, Solvent (converted)

SMILES	relaxation of methacholine-pre-contracted BTSM strips [1]	EC50 [1, 3] [µM]	EC50 [1, 4] [µM]	effect of the ß2-adrenoceptor antagonist propranolol on the relaxation of BTSM strips induced by the compound [1]	shift of the dose response curve for isoprenaline (isoprenaline-induced relaxation) [1]	contraction induced by methacholine [1]	isometric tension of BTSM strips at 30 μM [1]	CSE-induced IL-8 release from hTERT cells [2]	further results
Cc1c(C)c2c(c(C)c1O)CCC(C)(C(=O)N1CCN(CC(=O)O)CC1)O2 (centres unmarked) [Sul-136, 2-(4-(6-hydroxy-2,5,7,8-tetramethylchroman-2-carbonyl)piperazin-1-yl)acetic acid]	do not alter the contractile tone								cell viability of hTERT cells (hTERT cells): do not alter cell viability
CC(C)NCC(O)COc1cccc2ccccc12 (centres unmarked) [propranolol, reference compound]									shift of the dose-response curve for isoprenaline by propranolol ([1]; BTSM strips pre-incubated with 1 μM propranolol (FIG. 4)): right-ward shift
CC(C)NCC(O)c1ccc(O)c(O)c1 (centres unmarked) [Isoprenaline, reference compound]		3.98	0.02						
Cc1c(C)c2c(c(C)c1O)CCC(C)(C(=O)N1CCNCC1)O2 (centres unmarked) [Sul-121, (6-hydroxy-2,5,7,8-tetramethylchroman-2-yl)(piperazin-1-yl)methanone]	even more pronounced relaxation, reaching statistical significance; also recorded: induce relaxation	316	316	not affected by propranolol; also recorded: does not alter the relaxation	significant right-ward shift; also recorded: shifts the dose response curve or isoprenaline to the right	decrease the contraction	leave the isometric tension unaffected	significantly reduce the release; also recorded: inhibit CSE-induced IL-8 release	cell viability of hTERT cells (hTERT cells; listed as SUL121): do not severely alter cell viability; cell viability of hTERT cells (hTERT cells; listed as SUL-121): seem not to severely alter the cell viability; effect of the ß2-adrenoceptor antagonist propranolol on the relaxation of BTSM strips induced by the compound ([1]; listed as SUL121): ß2-adrenoceptor-independent; shift of the dose response curve for isoprenaline (isoprenaline-induced relaxation) ([1]; listed as SUL212): right-ward shift; contraction induced by methacholine ([1]; listed as SUL121): significantly reduce the contraction; contraction induced by methacholine ([1]; listed as Sul121): reduced the contraction; CSE-induced IL-8 release from hTERT cells ([2]; listed as SUL121): inhibit the cellular IL-8 release
Cc1c(C)c2c(c(C)c1O)CCC(C)(C(=O)NO)O2 (centres unmarked) [Sul-90, N,6-dihydroxy-2,5,7,8-tetramethylchroman-2-carboxamide]	shows a trend to induce relaxation	316	398	trend to a left-ward shift; also recorded: does not alter the relaxation	not	reduced the contraction; also recorded: decrease the contraction	leave the isometric tension unaffected	significantly reduce the release; also recorded: inhibit CSE-induced IL-8 release	cell viability of hTERT cells (hTERT cells; listed as SUL90): do not severely alter cell viability; cell viability of hTERT cells (hTERT cells; listed as SUL-90): seem not to severely alter the cell viability; effect of the ß2-adrenoceptor antagonist propranolol on the relaxation of BTSM strips induced by the compound ([1]; listed as SUL90): ß2-adrenoceptor-independent; effect of the ß2-adrenoceptor antagonist propranolol on the relaxation of BTSM strips induced by the compound ([1]; listed as Sul90): not affected by propranolol; contraction induced by methacholine ([1]; listed as SUL90): significantly reduce the contraction; concentrations at which a trend to relaxation of BTSM strips is shown ([1]; methacholine-pre-contracted BTSM strips (FIG. 3)): higher than 100 μM; CSE-induced IL-8 release from hTERT cells ([2]; listed as SUL90): inhibit the cellular IL-8 release
